Counter-ions that a name gives are not always drawn.
| SMILES | melting point [°C] |
| --- | --- |
| CCCc1nc2c(N)nc3c(c2n1CCCCN(O)C(=O)NC(C)C)CCCC3 [Example 50, N-[4-(4-Amino-2-propyl-6,7,8,9-tetrahydro-1H-imidazo[4,5-c]quinolin-1-yl)butyl]-N-hydroxy-N′-isopropylurea] | 178 to 180 |
| CCCCc1nc2c(N)nc3ccccc3c2n1CCCC(C)=NOC [Example 33, 5-(4-Amino-2-butyl-1H-imidazo[4,5-c]quinolin-1-yl)pentan-2-one O-methyloxime] | 157 to 159 |
| CCCc1nc2c(N)nc(C)c(C)c2n1CCCCN(O)C(C)=O [Example 15, N-[4-(4-Amino-6,7-dimethyl-2-propyl-1-imidazo[4,5-c]pyridin-1-yl)butyl]-N-hydroxyacetamide] | 164 to 166 |
| CCCc1nc2c(N)nc3cc(-c4ccccc4)ccc3c2n1CCCC(C)N(OC)C(=O)NC(C)C (stereo not shown) [Example 18, 1-[4-(4-Amino-7-phenyl-2-propyl-1H-imidazo[4,5-c]quinolin-1-yl)-1-methylbutyl]-3-isopropyl-1-methoxyurea] | 101 to 103 |
| CCCc1nc2c(N)nc3ccccc3c2n1CCCCN(OC)C(N)=O [Example 7, 1-[4-(4-Amino-2-propyl-1H-imidazo[4,5-c]quinolin-1-yl)butyl]-1-methoxyurea] | 179 to 181 |
| CCCc1nc2c(N)nc3cccnc3c2n1CCCCN(OC)C(=O)NC(C)C [Example 3, N-[4-(4-Amino-2-propyl-1H-imidazo[4,5-c][1,5]naphthyridin-1-yl)butyl]-N′-isopropyl-N-methoxyurea] | 161 to 162 |
| CCCc1nc2c(N)nc3ccccc3c2n1CCCCN(OC)C(C)=O [Example 6, N-[4-(4-Amino-2-propyl-1H-imidazo[4,5-c]quinolin-1-yl)butyl]-N-methoxyacetamide] | 138 to 140 |
| CCOCc1nc2c(N)nc3cccnc3c2n1CCCCN(OC)C(=O)NC(C)C [Example 21, 1-[4-(4-Amino-2-ethoxymethyl-1H-imidazo[4,5-c][1,5]naphthyridin-1-yl)butyl]-3-isopropyl-1-methoxyurea] | 146 to 147 |
| CO/N=C/CCCn1c(C)nc2c(N)nc3ccccc3c21 [Example 45, 4-(4-Amino-2-methyl-1H-imidazo[4,5-c]quinolin-1-yl)butanal O-methyloxime] | 153 to 155 |
| CCCc1nc2c(N)nc(C)c(C)c2n1CCCCN(O)C(=O)Nc1ccccc1 [Example 24, 1-[4-(4-Amino-6,7-dimethyl-2-propyl-1H-imidazo[4,5-c]pyridine-1-yl)butyl]-1-hydroxy-3-phenylurea] | 159 to 160.5 |
| CON=C(C)CC(C)(C)Cn1cnc2c(N)nc3ccccc3c21 [Example 41, 5-(4-Amino-1H-imidazo[4,5-c]quinolin-1-yl)-4,4-dimethylpentan-2-one O-methyloxime] | 148 to 150 |
| CCCc1nc2c(N)nc3ccccc3c2n1CCCC(C)N(OC)C(=O)NC1CCCC1 (stereo not shown) [Example 16, 1-[4-(4-Amino-2-propyl-1H-imidazo[4,5-c]quinolin-1-yl)-1-methylbutyl]-N-methoxy-3-cyclopentylurea] | 182 to 184 |
| CON=C(C)CCCn1c(C)nc2c(N)nc3ccccc3c21 [Example 32, 5-(4-Amino-2-methyl-1H-imidazo[4,5-c]quinolin-1-yl)pentan-2-one O-methyloxime] | 158 to 161 |
| CCOCc1nc2c(N)nc3ccccc3c2n1CCCC(C)=NOCc1ccccc1 (as salt: hydrochloride) [Example 36, 5-(4-Amino-2-ethoxymethyl-1H-imidazo[4,5-c]quinolin-1-yl)pentan-2-one O-benzyloxime hydrochloride] | 184 to 186 |
| CCCc1nc2c(N)nc(C)c(C)c2n1CCCCN(OC)C(=O)OC(C)(C)C [Example 26, N-[4-(4-Amino-6,7-dimethyl-2-propyl-1H-imidazo[4,5-c]pyridin-1-yl)butyl]-N-[tert-butyl-carbamate]-O-methylhydroxylamine] | 127 to 128 |
| CCCc1nc2c(N)nc3ccccc3c2n1CCCCN(OC)S(C)(=O)=O [Example 8, N-[4-(4-Amino-2-propyl-1H-imidazo[4,5-c]quinolin-1-yl)butyl]-N-methoxymethanesulfonamide] | 178 to 188 |
| CCCCCCC(CCCn1c(CCC)nc2c(N)nc3ccccc3c21)=NO [Example 38, 1-(4-Amino-2-propyl-1H-imidazo[4,5-c]quinolin-1-yl)decan-4-one oxime] | 113 to 115 |

| SMILES | melting point [°C] |
| --- | --- |
| CCCc1nc2c(N)nc(C)c(C)c2n1CCCCN(O)C(=O)OC(C)(C)C [Example 14, N-[4-(4-Amino-6,7-dimethyl-2-propyl-1H-imidazo[4,5-c]pyridin-1-yl)butyl]-N-[tert-butyl carbamate]hydroxylamine] | 157 to 158.5 |
| CCCc1nc2c(N)nc3cccnc3c2n1CCCCN(OC)C(C)=O [Example 1, N-[4-(4-Amino-2-propyl-1H-imidazo[4,5-c]-1,5-naphthyridin-1-yl)butyl]-N-methoxyacetamide] | 155 to 156 |
| CCCc1nc2c(N)nc3ccccc3c2n1CCCCN(O)C(=O)NC(C)C [Example 44, N-[4-(4-Amino-2-propyl-1H-imidazo[4,5-c]quinolin-1-yl)butyl]-N-hydroxy-N′-isopropylurea] | 158 to 160 |
| CCCc1nc2c(N)nc3ccccc3c2n1CC(C)(C)CC(C)=NOC [Example 40, 5-(4-Amino-2-propyl-1H-imidazo[4,5-c]quinolin-1-yl)-4,4-dimethylpentan-2-one O-methyloxime] | 196 to 198 |
| CCCc1nc2c(N)nc(C)c(C)c2n1CCCCN(OC)C(=O)c1ccccc1 [Example 27, N-Methoxy-N-[4-(4-amino-6,7-dimethyl-2-propyl-1H-imidazo[4,5-c]pyridin-1-yl)-butyl]benzamide] | 136 to 137 |
| CON(CCCCn1c(C)nc2c(N)nc3ccccc3c21)C(N)=O [Example 46, N-[4-(4-Amino-2-methyl-1H-imidazo[4,5-c]quinolin-1-yl)butyl]-N-methoxyurea] | 158 to 160 |
| CCCCc1nc2c(N)nc3ccccc3c2n1CCCC(=NOC)c1ccccc1 [Example 29, 4-(4-Amino-2-butyl-1H-imidazo[4,5-c]quinolin-1-yl)-1-phenylbutan-1-one O-methyloximie] | 198 to 200 |
| CCCc1nc2c(N)nc(C)c(C)c2n1CCC/C(C)=N/OC [Example 5, 5-(4-Amino-6,7-dimethyl-2-propyl-1H-imidazo[4,5-c]pyridine-1-yl)pentan-2-one O-methyloxime] | 144 to 145.5 |
| CON(CCCCn1c(C)nc2c(N)nc3ccccc3c21)S(C)(=O)=O [Example 47, N-[4-(4-Amino-2-methyl-1H-imidazo[4,5-c]quinolin-1-yl)butyl]-N-methoxymethanesulfonamide] | 201 to 203 |
| CCCc1nc2c(N)nc3ccccc3c2n1CCCC(C)N(OC)C(=O)Nc1ccccc1 (stereo not shown) [Example 11, 1-[4-(4-Amino-2-propyl-1H-imidazo[4,5-c]quinolin-1-yl)-1-methylbutyl]-1-methoxy-3-phenylurea] | 140 to 142 |
| CCCCc1nc2c(N)nc3cccnc3c2n1CCC/C(C)=N/OC [Example 4, 5-(4-Amino-2-butyl-1H-imidazo[4,5-c][1,5]naphthyridin-1-yl)-pentan-2-one O-methyloxine] | 132 to 134 |
| CCOCc1nc2c(N)nc3cccnc3c2n1CCCCN(OC)C(C)=O [Example 20, N-[4-(4-amino-2-ethoxymethyl-1H-imidazo[4,5-c][1,5]naphthyridin-1-yl)butyl]-N-Methoxyacetamide] | 180 to 181 |
| CCCc1nc2c(N)nc3ccccc3c2n1CCCC(CC(C)C)=NO [Example 37, 1-(4-Amino-2-propyl-1H-imidazo[4,5-c]quinolin-1-yl)-6-methylheptan-4-one oxime] | 207 to 209 |
| CCCc1nc2c(N)nc3ccccc3c2n1CCCCN(O)C(C)=O [Example 43, N-[4-(4-Amino-2-propyl-1H-imidazo[4,5-c]quinolin-1-yl)butyl]-N-hydroxyacetamide] | 191 to 193 |
| CCc1nc2c(N)nc3ccccc3c2n1CCCNOC [Example 51, N-[3-(4-Amino-2-ethyl-1H-imidazo[4,5-c]quinolin-1-yl)propyl]-O-methylhydroxylamine] | 210 to 213 |
| CCCc1nc2c(N)nc3cccnc3c2n1CCCC(C)N(OC)C(C)=O (stereo not shown) [Example 22, N-Methoxy-N-[4-(4-amino-2-propyl-1H-imidazo[4,5-c][1,5]naphthyridin-1-yl)1-methyl-butyl]acetamide] | 158 to 159 |
| CC(CCCn1c(C)nc2c(N)nc3ccccc3c21)=NO [Example 30, 5-(4-Amino-2-methyl-1H-imidazo[4,5-c]quinolin-1-yl)pentan-2-one oxime] | 264 to 266 |

— patent US8778963B2, “Hydroxylamine and oxime substituted imidazoquinolines, imidazopyridines, and imidazonaphthyridines” (3M Innovative Properties Company, priority 2003, dated 2014)
